# Reference: patent US20260028365A1 (BIOGEN MA INC., priority 2022, published 2026)
# Where two headings read alike, the source gives them in different places.
# Key:
# JH2 domain of human Tyk2 = JH2 domain of human Tyk2 (Homo sapiens (Human), UniProt P29597); assay: JH2 Biochemical Assay (TR-FRET probe displacement); type: binding
# Tyk2 = Tyk2 (Homo sapiens (Human), UniProt P29597); assay: pSTAT4 Cell Assay (MSD, NK92 cells); type: cell-based
# [1] = TR-FRET probe displacement, JH2 domain of human Tyk2
# [2] = JH2 domain of human Tyk2, TR-FRET probe displacement
# [3] = TR-FRET probe displacement, JH2 domain
# JH2 domain of human Tyk2, sequence (P29597 575-876): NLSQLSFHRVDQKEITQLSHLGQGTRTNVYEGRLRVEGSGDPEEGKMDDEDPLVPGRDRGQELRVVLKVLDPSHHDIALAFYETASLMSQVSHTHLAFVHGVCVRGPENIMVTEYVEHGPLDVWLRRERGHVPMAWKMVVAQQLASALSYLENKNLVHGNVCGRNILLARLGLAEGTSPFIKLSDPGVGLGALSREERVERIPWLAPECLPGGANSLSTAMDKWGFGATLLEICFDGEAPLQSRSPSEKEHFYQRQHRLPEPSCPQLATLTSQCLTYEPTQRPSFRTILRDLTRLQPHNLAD
# Tyk2, sequence (P29597 whole entry, the tested form may be a part): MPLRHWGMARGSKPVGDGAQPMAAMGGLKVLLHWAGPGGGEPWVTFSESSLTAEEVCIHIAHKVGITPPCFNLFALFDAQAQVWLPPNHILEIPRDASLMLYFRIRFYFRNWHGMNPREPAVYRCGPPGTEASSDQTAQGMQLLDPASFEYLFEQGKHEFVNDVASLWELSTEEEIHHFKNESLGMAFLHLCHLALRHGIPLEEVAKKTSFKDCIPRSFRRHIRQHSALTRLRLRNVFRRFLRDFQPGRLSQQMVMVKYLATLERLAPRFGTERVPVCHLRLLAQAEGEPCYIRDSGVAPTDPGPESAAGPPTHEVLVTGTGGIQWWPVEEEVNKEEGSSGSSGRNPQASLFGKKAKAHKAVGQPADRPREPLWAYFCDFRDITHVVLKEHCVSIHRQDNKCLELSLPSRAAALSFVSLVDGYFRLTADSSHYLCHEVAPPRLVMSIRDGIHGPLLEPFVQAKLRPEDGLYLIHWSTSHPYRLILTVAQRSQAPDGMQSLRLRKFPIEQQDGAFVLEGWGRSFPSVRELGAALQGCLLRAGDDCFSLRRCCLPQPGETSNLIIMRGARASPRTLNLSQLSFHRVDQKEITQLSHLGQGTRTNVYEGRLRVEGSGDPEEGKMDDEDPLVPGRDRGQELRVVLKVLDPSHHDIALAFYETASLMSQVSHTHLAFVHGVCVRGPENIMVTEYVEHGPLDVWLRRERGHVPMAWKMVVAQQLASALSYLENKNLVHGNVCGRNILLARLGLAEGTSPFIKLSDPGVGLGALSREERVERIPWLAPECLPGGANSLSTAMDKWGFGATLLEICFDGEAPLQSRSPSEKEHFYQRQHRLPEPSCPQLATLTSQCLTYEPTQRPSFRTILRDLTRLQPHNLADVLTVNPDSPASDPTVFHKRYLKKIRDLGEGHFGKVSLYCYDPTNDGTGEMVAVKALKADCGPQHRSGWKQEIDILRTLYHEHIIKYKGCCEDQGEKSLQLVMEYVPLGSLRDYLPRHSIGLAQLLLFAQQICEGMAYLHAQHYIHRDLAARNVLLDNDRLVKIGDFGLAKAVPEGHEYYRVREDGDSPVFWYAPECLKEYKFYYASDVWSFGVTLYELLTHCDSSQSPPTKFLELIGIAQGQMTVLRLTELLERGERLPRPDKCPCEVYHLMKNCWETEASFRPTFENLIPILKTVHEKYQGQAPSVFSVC
Compound,IC50 (JH2 domain of human Tyk2; [1]),IC50 (Tyk2; MSD),IC50 (JH2 domain of human Tyk2; [2]),IC50 (JH2 domain of human Tyk2; [3]),IC50 (Tyk2)
"CC(=O)Nc1cc(Nc2cccc(C(C)(F)F)n2)c(-c2ccn(C)c(=O)n2)cn1 [Example 160, N-(4-((6-(1,1-difluoroethyl)pyridin-2-yl)amino)-5-(1-methyl-2-oxo-1,2-dihydropyrimidin-4-yl)pyridin-2-yl)acetamide]",≤ 10 nM,≤ 10 nM,–,–,–
"CC(=O)Nc1cc(Nc2ccnc(C(C)(F)F)n2)c(-c2cnn(C3CCC3)c2)cn1 [Example 579, N-(5-(1-cyclobutyl-1H-pyrazol-4-yl)-4-((2-(1,1-difluoroethyl)pyrimidin-4-yl)amino)pyridin-2-yl)acetamide]",–,≥ 1000 nM,100 to 1000 nM,–,–
"COc1cnc(NC(C)=O)cc1Nc1cc(C)nc(C23COC(C)(C2)C3)n1 [Example 449, N-(5-methoxy-4-((6-methyl-2-(1-methyl-2-oxabicyclo[2.1.1]hexan-4-yl)pyrimidin-4-yl)amino)pyridin-2-yl)acetamide]",–,≥ 1000 nM,100 to 1000 nM,–,–
"CC(=O)Nc1cc(Nc2cc(C)nc(C(C)(F)F)n2)c(OCC2(C(F)(F)F)CC2)cn1 [Example 57, N-(4-((2-(1,1-difluoroethyl)-6-methylpyrimidin-4-yl)amino)-5-((1-(trifluoromethyl)cyclopropyl)methoxy)pyridin-2-yl)acetamide]",≤ 10 nM,10 to 100 nM,–,–,–
"COCCc1cnn(-c2cnc(NC(C)=O)cc2Nc2cc(C)nc(C(C)(F)F)n2)c1 [Example 764, N-(4-((2-(1,1-difluoroethyl)-6-methylpyrimidin-4-yl)amino)-5-(4-(2-methoxyethyl)-1H-pyrazol-1-yl)pyridin-2-yl)acetamide]",–,–,–,≤ 10 nM,10 to 100 nM
"CC(=O)Nc1cc(Nc2cc(C)nc(C(C)(F)F)n2)c(-c2cnc(COC(F)F)cn2)cn1 [Example 662, N-(4-((2-(1,1-difluoroethyl)-6-methylpyrimidin-4-yl)amino)-5-(5-((difluoromethoxy)methyl)pyrazin-2-yl)pyridin-2-yl)acetamide]",–,10 to 100 nM,≤ 10 nM,–,–
"CC(=O)Nc1cc(Nc2cc(C)nc(C(C)(F)F)n2)c(OC[C@H]2CCC[C@@H](C)O2)cn1 (stereo in doubt) [Example 418, Cis-rac-N-(4-((2-(1,1-difluoroethyl)-6-methylpyrimidin-4-yl)amino)-5-(((2R,6R)-6-methyltetrahydro-2H-pyran-2-yl)methoxy)pyridin-2-yl)acetamide]",–,≤ 10 nM,≤ 10 nM,–,–
"CC(=O)Nc1cc(Nc2cc(C)nc(C34COC(C3)C4)n2)c(-c2cc(C(F)F)ccn2)cn1 [Example 576, N-(4′-((2-(2-oxabicyclo[2.1.1]hexan-4-yl)-6-methylpyrimidin-4-yl)amino)-4-(difluoromethyl)-[2,3′-bipyridin]-6′-yl)acetamide]",–,100 to 1000 nM,≤ 10 nM,–,–
"CC(=O)Nc1cc(Nc2cc(C)nc(C(C)(F)F)n2)c(-c2cccc(C3CCCCO3)n2)cn1 (stereo not drawn) [Example 647, N-(4′-((2-(1,1-difluoroethyl)-6-methylpyrimidin-4-yl)amino)-6-(tetrahydro2H-pyran-2-yl)-[2,3′-bipyridin]-6′-yl)acetamide]",–,≤ 10 nM,≤ 10 nM,–,–
"COc1cnc(-c2cnc(NC(C)=O)cc2Nc2cc(OC3CC3)nc(C(C)(F)F)n2)cn1 [Example 830, N-(4-((6-cyclopropoxy-2-(1,1-difluoroethyl)pyrimidin-4-yl)amino)-5-(5-methoxypyrazin-2-yl)pyridin-2-yl)acetamide]",–,–,–,≤ 10 nM,10 to 100 nM
"CC(=O)Nc1cc(Nc2ccnc(C(C)(F)F)n2)c(-c2cnc(C(C)(F)F)cn2)cn1 [Example 695, N-(5-(5-(1,1-difluoroethyl)pyrazin-2-yl)-4-((2-(1,1-difluoroethyl)pyrimidin-4-yl)amino)pyridin-2-yl)acetamide]",–,100 to 1000 nM,≤ 10 nM,–,–
"COc1nccc(-c2cnc(NC(C)=O)cc2Nc2cc(C)nc(C(C)(F)F)n2)n1 [Example 179, N-(4-((2-(1,1-difluoroethyl)-6-methylpyrimidin-4-yl)amino)-5-(2-methoxypyrimidin-4-yl)pyridin-2-yl)acetamide]",≤ 10 nM,≤ 10 nM,–,–,–
